Consider two compounds from patent US7223583B2, “Antithrombotic thrombin variants” (Emory University, priority 2001, dated 2007).

Residues, ends and D or L forms follow the SMILES beside them. *: point of attachment. pNA = O=[N+]([O-])c1ccc(N*)cc1

Holding throughout (format): biochemical
Experiment [1] deals with T1, human thrombin, wild-type (WT) (Homo sapiens, UniProt P00734).
T1 construct: the B chain of thrombin commences with I1 and extends to E259; made in house
Kind of experiment: Hydrolysis of chromogenic substrates (release of p-NA at 405 nm), Example 3. As to conditions: 5 mM Tris, 0.1% PEG, 200 mM NaCl, pH 8.0, 25° C. The method, then: Citrated plasma was diluted 1:1 with isotonic saline, and the thrombin analogs were diluted with 0.1 M NaCl, 0.01 M CaCl2, 0.02 M Tris, pH 7.3 prior to testing. 100 μl of thrombin analog was then added to 200 μl of baboon plasma and the clotting time was determined using a fibrometer.
(§1) The chromogenic substrates FPR and LDPR were synthesized by solid phase, purified by HPLC and analyzed by mass spectrometry. Progress curves of the release of p-NA following the hydrolysis of chromogenic substrate were measured at 405 nm as a function of substrate concentration and analyzed to extract the values of kcat/Km and kcat, after proper correction for product inhibition. […] Biotechnol.

In experiment [2] the test system is human thrombin, variant E217A. Kind of experiment: Hydrolysis of chromogenic substrate (progress curves of the release of p-nitroaniline at 405 nm), Example 4. To be noted: E217A thrombin mutant (Gibbs et al.). On the procedure:
(§2) All assays were carried out under experimental conditions of 5 mM Tris, 0.1% PEG, 145 mM NaCl, pH 7.4 at 37° C. The chromogenic substrates H-D-Phe-Pro-Arg-p-nitroanilide specific for thrombin and H-D-Asp-Arg-Arg-p-nitroanilide specific for activated protein C were purchased from Midwest Bio-Tech (Carmel, Ind.). The values of kcat/Km and kcat were obtained from the analysis of progress curves of the release of p-nitroaniline (measured at 405 nm) as a function of substrate concentration taking into account product inhibition, when present. The interaction of thrombin with fibrinogen and fibrin was studied in terms of the release of fibrinopeptides A and B as described by Vindigni & Di Cera. Biochemistry 35: 4417-4426 (1996) incorporated herein by reference in its entirety. The interaction of thrombin with PAR-1 was studied from the kinetics of cleavage of a soluble fragment corresponding to the extracellular portion of the receptor, as detailed in Arosio et al. Biochemistry 39: 8095-8101 (2000) incorporated herein by reference in its entirety. The inhibition of thrombin by antithrombin III in the presence of heparin, and the activation of protein C in the presence or absence of rabbit thrombomodulin were carried out and analyzed as described in Dang et al. Nat. Biotechnol. 15: 146-149 (1997).

In experiment [3] the target is T2, human thrombin, variant E217A (Homo sapiens, UniProt P00734, E592A).
T2 construct: the B chain of thrombin commences with I1 and extends to E259
Described as above. As to conditions: E217A; 5 mM Tris, 0.1% PEG, 145 mM NaCl, pH 7.4, 37° C. The method, then:
as §2

The target of experiment [4] is T3, human thrombin, variant W215A, SEQ ID NO: 1 (Homo sapiens, UniProt P00734, W590A).
T3 construct: The B chain commences with I1 and extends to E259; made in house; host or cells: baby hamster kidney cells
Kind of experiment: Hydrolysis of chromogenic substrates (release of p-NA at 405 nm), Example 3. To be noted: 5 mM Tris, 0.1% PEG, 200 mM NaCl, pH 8.0, 25° C. On the procedure: Site-directed mutagenesis of human α-thrombin was carried out in a HPC4-pNUT expression vector as described in Arosio et al. Biochemistry 39: 8095-8101 (2000) and incorporated herein by reference in its entirety, using overlap extension PCR with two mutant oligonucleotides: upstream: 5-GGGCATCGTCTCAXXXGGTGAAGGCTG TG-3(SEQ ID NO: 7); downstream: 5-CACAGCCTTCACCXXXTGAGACGATGCCC-3 (SEQ ID NO: 8) and two flanking oligonucleotide primers, BgIII (upstream): 5-[…]-3 (SEQ ID NO: 9 and; EcoRI (downstream): 5-[…]-3 (SEQ ID NO: 10). For the generation of the double mutant variant W215A/E217A (WE) thrombin, the forward primer 5′-[…]-3′ (SEQ ID NO: 11) and the reverse primer 5′-[…]-3′ (SEQ ID NO: 12) were used. Expression of the variant thrombins was carried out in baby hamster kidney cells as described in Guinto et al. Proc. Natl. Acad. Sci. U.S.A. 96: 1852-1857 (1999) incorporated herein by reference in its entirety. The enzyme was activated with the prothrombinase complex for about 30 mins. at 37° C. and then purified to homogeneity by monoS FPLC using a linear gradient of 0.05 to 0.5 M NaCl in 5 mM MES (pH 6) at room temperature. Mutants were further checked for incomplete refolding or autolytic digestion by N-terminal amino acid sequencing. Electrospray mass spectrometry yielded molecular weights consistent with the mutations introduced and indicated identical glycosylation in wild-type and mutant constructs.
as §1, with “All assays were carried out under experimental conditions of 5 mM Tris, 0.1% PEG, 145 mM NaCl, pH 7.4 at 37° C., unless otherwise specified. The” for “The”, “Biotechnol. 15: 146-149 (1997) and incorporated herein by reference in its entirety.” for “Biotechnol.”

For experiment [5], the target named is T4, human thrombin, variant W215A/E217A (WE), SEQ ID NO: 3 (Homo sapiens, UniProt P00734, E592A/W590A).
T4 construct: The B chain commences with I1 and extends to E259; made in house; host or cells: baby hamster kidney cells
Nature of the experiment: Hydrolysis of chromogenic substrate (progress curves of the release of p-nitroaniline at 405 nm), Example 4. As to conditions: W215A/E217A (WE); 5 mM Tris, 0.1% PEG, 145 mM NaCl, pH 7.4, 37° C. The method, then:
(§3) Site-directed mutagenesis of human α-thrombin was carried out in a HPC4-pNUT expression vector as described in Arosio et al. Biochemistry 39: 8095-8101 (2000) and incorporated herein by reference in its entirety, using overlap extension PCR with two mutant oligonucleotides: upstream: 5-GGGCATCGTCTCAXXXGGTGAAGGCTG TG-3(SEQ ID NO: 7); downstream: 5-CACAGCCTTCACCXXXTGAGACGATGCCC-3 (SEQ ID NO: 8) and two flanking oligonucleotide primers, BgIII (upstream): 5-[…]-3 (SEQ ID NO: 9 and; EcoRI (downstream): 5-[…]-3 (SEQ ID NO: 10). For the generation of the double mutant variant W215A/E217A (WE) thrombin, the forward primer 5′-[…]-3′ (SEQ ID NO: 11) and the reverse primer 5′-[…]-3′ (SEQ ID NO: 12) were used. […]
(§4) All assays were carried out under experimental conditions of 5 mM Tris, 0.1% PEG, 145 mM NaCl, pH 7.4 at 37° C. […] The values of kcat/Km and kcat were obtained from the analysis of progress curves of the release of p-nitroaniline (measured at 405 nm) as a function of substrate concentration taking into account product inhibition, when present. […] The inhibition of thrombin by antithrombin III in the presence of heparin, and the activation of protein C in the presence or absence of rabbit thrombomodulin were carried out and analyzed as described in Dang et al. Nat. […]

In experiment [6] the test system is human thrombin, variant W215A/E217A (WE), SEQ ID NO: 3. The experiment is described as above. To be noted: W215A/E217A (WE) thrombin double mutant. On the procedure: as §3, §4
Experiment [7] concerns the target T1, human thrombin, wild-type (WT). The experiment is described as above. As to conditions: 5 mM Tris, 0.1% PEG, 145 mM NaCl, pH 7.4, 37° C.
From the text: WT, W215A and WE variant thrombins were expressed, purified, and characterized in detail as described by Cantwell & Di Cera. J. Biol. Chem. 275: 39827-39830 (2000), incorporated herein by reference in its entirety. WE was stored in aliquots frozen until used in the thrombosis or coagulation experiments. To confirm that injection of variant thrombin WE would be at least as safe as injection of WT in baboons, the procoagulant activities of the two thrombins were compared in baboon plasma prepared by pooling citrated plasma samples from five animals. Citrated plasma was diluted 1:1 with isotonic saline, and the thrombin analogs were diluted with 0.1 M NaCl, 0.01 M CaCl2, 0.02 M Tris, pH 7.3 prior to testing. 100 μl of thrombin analog was then added to 200 μl of baboon plasma and the clotting time was determined using a fibrometer. […]
as §4

Setting [8] is: kcat could not be estimated due to the very high Km.

Turning to `NC(N)=NCCC[C@H](NC(=O)[C@@H]1CCCN1C(=O)[C@H](N)Cc1ccccc1)C(=O)Nc1ccc([N+](=O)[O-])cc1` [FPR, H-D-Phe-Pro-Arg-p-nitroanilide], the “kcat (FPR)” value in experiment [1] was 56 ± 3 s⁻¹; in experiment [4], 43 ± 2 s⁻¹. The “kcat/Km (FPR)” value in experiment [1] amounted to 8.8e+07 ± 4e+06 M⁻¹ s⁻¹; in experiment [4], 910000 ± 10000 M⁻¹ s⁻¹. The “drop of kcat/Km for the hydrolysis of H-D-Phe-Pro-Arg-p-nitroanilide” value in experiment [2] was “over 25 fold”. Also, the “kcat/Km (H-D-Phe-Pro-Arg-p-nitroanilide)” value in experiment [3] amounted to 3.8e+06 ± 300000 M⁻¹ s⁻¹; in experiment [5], 2800 ± 100 M⁻¹ s⁻¹; in experiment [7], 9.7e+07 ± 5e+06 M⁻¹ s⁻¹. In experiment [6], the “cleavage of H-D-Phe-Pro-Arg-p-nitroanilide compromised” value is recorded as “over 30,000 fold”.

Take `CC(C)C[C@H](N)C(=O)N[C@@H](CC(=O)O)C(=O)N1CCC[C@H]1C(=O)N[C@@H](CCCN=C(N)N)C(=O)Nc1ccc([N+](=O)[O-])cc1` [LDPR, H-L-Leu-Asp-Pro-Arg-p-nitroanilide] (H-LDPR-pNA): the “kcat/Km (LDPR)” value in experiment [1] (setting [8]) was 4.7e+06 ± 900000 M⁻¹ s⁻¹; in experiment [4] (setting [8]), 25000 ± 1000 M⁻¹ s⁻¹.
